Results published in ChEMBL document CHEMBL1158241, “Inhibition of hepatitis B surface antigen secretion on human hepatoma cells. Components from Rubia cordifolia” (J Nat Prod, 1996).
≈ marks a conversion by molar mass, not a printed value. Calls of active or inactive are those of the source. The calls are words filed in the database; no cut-off is given here.

Tests used:
[1] = test system: Hepatitis B virus; test: Antiviral activity against Hepatitis B virus infected in human Hep3B cells assessed as suppression of viral surface antigen secretion after 48 hrs by enzyme immunoassay; assay type: functional, organism-based, Hep 3B2
[2] = Cytotoxicity against human Hep3B cells at >20 […] by MTT assay; assay type: cell-based; settings: hep 3b2
[3] = Cytotoxicity against human Hep3B cells by MTT assay; assay type: cell-based, Hep 3B2
[4] = test system: Hepatitis B virus; test: Antiviral activity against Hepatitis B virus infected in human Hep3B cells assessed as suppression of viral surface antigen secretion at >5 […] after 48 hrs by enzyme immunoassay; assay type: functional, organism-based; settings: Hep 3B2

Compound	IC50 [1] [µg/mL]	Activity [2]	CC50 [3] [µg/mL]	Activity [4]
COC(=O)c1c2c(c3ccccc3c1OC)OC(C)(C)CC2 [DIHYDROMOLLUGIN METHYL ETHER]	–	–	7 (≈ 23.3 µM)	inactive
COC(=O)c1c2c(c3ccccc3c1O)OC(C)(C)CC2 [DIHYDROMOLLUGIN]	2 (≈ 6.99 µM)	–	8.2 (≈ 28.6 µM)	–
COC(=O)c1c(O)c2ccccc2c2occc12 [FUROMOLLUGIN]	2 (≈ 8.26 µM)	–	11.5 (≈ 47.5 µM)	–
COC(=O)c1c(OC)c2ccccc2c2occc12 [METHYLFUROMOLLUGIN]	–	Not Active	–	inactive
COC(=O)c1c(OC)c2ccccc2c2oc(=O)ccc12 [METHYLRUBILACTONE]	–	–	12.5 (≈ 44 µM)	inactive
COC(=O)c1c2c(c3ccccc3c1OC)OC(C)(C)C=C2 [MOLLUGIN METHYL ETHER]	–	Not Active	–	inactive
COC(=O)c1c(O)c2ccccc2c2oc(=O)ccc12 [RUBILACTONE]	–	–	4 (≈ 14.8 µM)	inactive

The next lines start with results.

IC50 [1] [µg/mL]	Compound	Activity [2]	CC50 [3] [µg/mL]	Activity [4]
4.5 (≈ 15.8 µM)	COc1c(C(=O)O)c2c(c3ccccc13)OC(C)(C)C=C2	Not Active	–	–
0.8 (≈ 2.26 µM)	COc1c(C(=O)OCCC(C)C)c2c(c3ccccc13)OC(C)(C)C=C2	–	10 (≈ 28.2 µM)	–
1 (≈ 2.67 µM)	COC(=O)c1c2c(c3ccccc3c1OCc1ccccc1)OC(C)(C)C=C2	Not Active	–	–
2 (≈ 6.13 µM)	COC(=O)c1c2c(c3ccccc3c1OC(C)=O)OC(C)(C)C=C2 [ACETYLMOLLUGIN]	–	10 (≈ 30.6 µM)	–
2 (≈ 7.03 µM)	COC(=O)c1c2c(c3ccccc3c1O)OC(C)(C)C=C2 [MOLLUGIN]	Not Active	–	–
